Reference: US20250009743A1, “METHODS OF TREATING CANCERS USING STING AGONISTS” (Dana-Farber Cancer Institute, Inc., priority 2021, published 2025)

Tests used:
[1] = tested on: myeloid cells (CD45^+CD11b^+) in ascites of PBM-R tumor-bearing mice; assay: Myeloid cells in ascites of PBM-R tumor-bearing mice (transcriptome, flow cytometry); assay type: in vivo, mouse; settings: 24 hours treatment
Experimental: (§1) Tumors were chopped and digested in collagenase buffer as described previously (Ding et al., 2018 Cell Rep 25, 2972-2980.e2975). Single cell suspensions of tumor and ascites were obtained by filtering through 70 um strainers and treated with 1× eBioscience RBC lysis buffer (Thermo Fisher) before staining. Single cells suspensions were incubated with LIVE/DEAD Fixable Aqua Dead Cell Stain (Life Technologies, Cat #L34965) for 30 min and then blocked with anti-CD16/32 (Biolegend, clone 93) for 20 min on ice. Samples were then incubated with appropriate antibodies for 30 min on ice. Foxp3 staining buffer set (eBioscience, Cat #00-5523-00) was applied for intracellular markers staining. For the intracellular cytokine analysis, cells were stimulated with Leukocyte Activation Cocktail (BD Biosciences, Cat #550583) at 37° C. for 4-6 hours prior to FACS staining. The following antibodies were used in this study: antibodies were purchased from BioLegend unless otherwise indicated: CD45 (clone 30-F11), CD3ε (clone 145-2C11), CD4 (clone RM4-5), CD8 (clone 53-6.7), CD44 (clone IM7), CD62L (MEL-14), CD25 (PC61), IFNγ (clone XMG1.2), TNFα (clone MP6-XT22), CD11b (clone M1/70), CD11c […], F4/80 (clone BM8), Ly-6C (clone HK1.4), Ly-6G (clone 1A8), MHC-II (clone M5/114.15.2), CD80 (clone 16-10A1), CD86 (clone GL-1), MHC-I (clone KH114), FoxP3 (clone FJK-16 s; eBioscience), Phospho-IRF-3 (Ser396) (clone D601M, Cell signaling technology) and Phospho-TBK1/NAK (Ser172) (clone D52C2, Cell signaling technology). The following human antibodies were used in this study: cell surface markers includes CD45 (clone H130), CD11b (clone M1/70), CD11c (clone Bu15), CD80 (clone 2D10), CD86 (clone IT2.2), CD14 (clone 63D3), CD15 […], HLA-DR (clone L243) and HLA-A,B,C (clone W6/32); intracellular markers include CD163 (clone GHI/61), CD68 (clone Y1/82A) and CD206 (clone 15-2). Flow cytometry was performed on an LSRII (BD Biosciences) or Fortessa HTS (BD Biosciences) at DFCI Flow Cytometry Core, and all the data were analyzed using FlowJo software.
Transcriptome analysis of myeloid cells: about 1 x10^6 PBM-R tumor cells were intraperitoneally injected to FVB/NJ mice. About 2-3 weeks after injection, mice were grouped and treated with control, olaparib, MSA-2 and […] for 24 hrs. After treatment, myeloid cells (CD45^+CD11b^+) were isolated from the ascites of each mouse (n=3 per group). Total RNAs was isolated and sequenced on the Ion Torrent platform (Thermo Fisher) that described above using the Ion AmpliSeq Transcriptome Mouse Gene Expression Panel. Gene ontology (GO) analysis of DEGs was performed using topGO package in R. GSEA analysis was performed as described above. Heat maps illustrating changes in gene expression were generated using the heatmap.3 package in R.

DF86 PDX = assay: DF86 ovarian PDX with human bone marrow monocytes in NSG mice; assay type: in vivo
Text: For the PDX in vivo experiments, about 3×10^6 PDX tumor cells were mixed with 3×10^6 human bone marrow mononuclear cells in serum-free DMEM/F12 medium containing 50% Matrigel (CAT #70001, […] Technology) and intraperitoneally transplanted into NOD/SCID IL2Rgnull mice (NSG, The Jackson Laboratory). About three weeks after injection, PDX-bearing mice were equivalently divided into 4 groups according to the luminescent intensity and treated with vehicle control, olaparib, MSA-2 and olaparib in combination with MSA-2 using the same dosing and schedule that have been described above. Ascites was harvested for analysis after three weeks' treatment.
as §1

[2] = tested on: TAMs co-cultured with CD8^+ T cells; assay: Co-culture of TAMs with CD8^+ T cells; assay type: cell-based, mouse; settings: TAMs pre-treated with MSA-2 33 μM, washed off; FIG. 34A
Experimental: Tumor associated macrophages (TAMs) were isolated from ETP tumors using a mouse CD11b^+ myeloid cell isolation kit (StemCell, #18970) and seeded in 48-well plate at the density of 1×10^5 cells/well, cultured in DMEM growth medium (DMEM+10% FBS+100 μg/mL penicillin-streptomycin) supplemented with 10 ng/ml mouse M-CSF (BioLegend, #576404) and allowed to adhere overnight. TAMs were then treated with or without MSA-2 at the concentration of 33 μM in the median mentioned above for 2 days. MSA-2 was washed off before coculturing TAM with CD8^+ T cells. Mouse CD8^+ T cells were isolated from spleens of FVB/NJ mice using a mouse CD8+ T cell isolation kit (StemCell, #19853) and seeded in the same 48-well plate at the density of 1×10^5 cells/well, cultured alone or cocultured with TAMs in RPMI 1640 supplemented with 10% FBS, 10 ng/ml mouse M-CSF (BioLegend, #576404), 0.055 mM 2-mercaptoethanol, 2 ng/ml IL-2 (Peprotech), 2.5 ng/ml IL-7 (Peprotech) and 50 ng/ml IL-15 (Peprotech) for 2 days. After that, T cells were collected for flow cytometry analysis.

[3] = tested on: BP-sgControl and BP-sgSTING cells; assay: CellTiter-Glo cell viability of BP-sgControl and BP-sgSTING cells; assay type: cell-based, mouse; settings: effect of loss of tumor cell-intrinsic STING; three days; FIG. 11B
Experimental: Tumor cells were seeded in 96-well plates at a density of 5000 cells per well and allowed to adhere overnight. Cells were then treated for 72 hours with indicated drugs at the concentrations shown. Cell viability was measured using CellTiter-Glo® 2.0 Cell Viability Assay (Promega, #G9242) according to the manufacturer's instruction. Growth inhibition was calculated by comparing the […] of drug-treated wells to that of untreated controls 1 set at 100%. Dose response curves and IC50 values were generated using a non-linear regression model in GraphPad Prism 8.

PBM tumor cells = assay: Measurement of IC50 value in PBM tumor cells (CellTiter-Glo); assay type: cell-based; settings: Mus musculus; reference value for the PBM-R3 fold; 72 h
Experimental: Tumor cells were seeded in 96-well plates at a density of 2000-3000/well and allowed to adhere overnight. Cells were then exposed to appropriate concentrations of therapeutic agents (or vehicle control) with continuous exposure for 72 h. Growth inhibition was measured by CellTiter-Glo® 2.0 Cell Viability Assay from Promega according to manufactory's introduction. IC50 values were calculated using non-linear regression model (logarithmic inhibitor vs. normalized response-variable slope) in Graphpad Prism 9.

| SMILES | cGAS-STING pathway gene signature in myeloid cells ([1]; vs control mice) | expression of M1-like/anti-tumorigenic genes ([1]; FIG. 21D) | expression of genes associated with antigen processing and presentation ([1]; FIG. 21D) | expression of genes associated with pro-tumorigenic M2 polarization ([1]; FIG. 21D) | population of TAMs in ascites ([1]; FIG. 21F) | population of CD11b^+CD11c^+ myeloid DCs in ascites ([1]; FIG. 21G) | proportion of TAMs in ascites (DF86 PDX; FIG. 25H) | M1/M2 ratio in ascites (DF86 PDX; FIG. 25I) | CD14^+ myeloid DCs (CD14^+HLA-DR^+) (DF86 PDX; FIG. 25J) | tumor burden (fold change of intensity of luciferase signal) (DF86 PDX; compared to control or olaparib treated mice, FIG. 25G) | TAM-mediated suppression of CD8^+ T cells (cytokine production) [2] | sensitivity to olaparib in vitro (cell viability) [3] | IC50 (PBM tumor cells) [nM] |
| --- | --- | --- | --- | --- | --- | --- | --- | --- | --- | --- | --- | --- | --- |
| COc1cc2cc(C(=O)CCC(=O)O)sc2cc1OC [MSA-2] | significantly higher enrichment scores | strongly up-regulated | strongly stimulated | inhibited | decreased | increased | decreased proportion of TAMs | increased M1/M2 ratio | significantly increased | significantly decreased | reversed TAM-mediated suppression of CD8^+ T cells |  |  |
| O=C(c1cc(Cc2n[nH]c(=O)c3ccccc23)ccc1F)N1CCN(C(=O)C2CC2)CC1 [olaparib] |  |  |  |  |  |  |  |  |  |  |  | did not affect sensitivity | 560 |
